Reference: publication PMC9696794, “Synthesis and Antimicrobial Activity of Short Analogues of the Marine Antimicrobial Peptide Turgencin A: Effects of SAR Optimizations, Cys-Cys Cyclization and Lipopeptide Modifications” (International Journal of Molecular Sciences, 2022)
Values after ≈ are worked out from the molar mass of the structure shown. Where a SMILES comes first, the peptide text is derived from it. Bridges are numbered along the chain shown (N, C = ends).

Key:
[1] = tested on: Gram-positive bacterial strains; conditions: Table S3; MIC >256 set to 256
Method in brief: (§1)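 Cultures grown in Mueller–Hinton broth were adjusted by OD600 to 2.5–3 × 10^4 CFU/mL and mixed with two-fold peptide dilutions from 256 to 1 µg/mL. Plates were incubated at 35 °C with OD595 monitored every hour for 24 h.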

[2] = tested on: S. epidermidis RP62A (Se, ATCC 35984); experiment: microbe, parasite or virus in culture; assay type: cell-based, Staphylococcus epidermidis; conditions: ATCC 35984, 24 h
Method in brief: as §1

[3] = tested on: human red blood cells (RBC); experiment: Haemolytic activity assay; assay type: cell-based
Method in brief: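 Washed human erythrocytes (1% hematocrit final) incubated 1 h at 37 °C with agitation with lipopeptides at 500–3.9 μM in PBS (≤1% DMSO), duplicates. Haemoglobin release read at 545 nm relative to 0.1% Triton X-100; EC50 is 50% haemolysis, averaged from three experiments.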

[4] = tested on: P. aeruginosa (Pa, ATCC 27853); experiment: microbe, parasite or virus in culture; assay type: cell-based, Pseudomonas aeruginosa; conditions: ATCC 27853, 24 h
Method in brief: as §1

[5] = tested on: Gram-negative bacterial strains (E. coli and P. aeruginosa); experiment: Antibacterial MIC assay, Gram-negative strains together (range or geometric mean); assay type: cell-based; conditions: Table S3; MIC >256 set to 256
Method in brief: as §1

A. pullulans (Ap) = experiment: microbe, parasite or virus in culture; assay type: cell-based, Aurobasidium pollulans; conditions: 48 h
Method in brief: (§2)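 Overnight cultures in potato dextrose broth with 2% glucose at 25–30 °C were diluted to approx. 4 × 10^5 spores/mL and mixed 1:1 with two-fold peptide dilutions plated at 256 to 1 µg/mL. After 48 h at room temperature, OD600 was read. MIC was the lowest concentration giving OD below 10% of the growth control, in triplicate.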

E. coli (Ec, ATCC 25922) = experiment: microbe, parasite or virus in culture; assay type: cell-based, Escherichia coli; conditions: ATCC 25922, 24 h
Method in brief: as §1

[6] = tested on: S. aureus (Sa, ATCC 9144); experiment: microbe, parasite or virus in culture; assay type: cell-based, Staphylococcus aureus; conditions: ATCC 9144, 24 h
Method in brief: as §1

[7] = tested on: C. albicans (Ca, ATCC 10231); experiment: microbe, parasite or virus in culture; assay type: cell-based, Candida albicans; conditions: ATCC 10231, 48 h
Method in brief: as §2

all bacterial strains = experiment: Antibacterial MIC assay, all bacterial strains together (range or geometric mean); assay type: cell-based
Method in brief: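 Broth microdilution in Mueller–Hinton broth against B. subtilis, C. glutamicum, S. aureus, S. epidermidis RP62A, E. coli and P. aeruginosa; inoculum 2.5–3 × 10^4 CFU/mL, 35 °C, OD595 read hourly for 24 h. MIC: lowest peptide concentration giving OD below 10% of growth control; geometric mean across strains, triplicate.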

Rhodotorula sp. (Rh) = experiment: microbe, parasite or virus in culture; assay type: cell-based; conditions: 48 h
Method in brief: as §2

[8] = tested on: C. glutamicum (Cg, ATCC 13032); experiment: microbe, parasite or virus in culture; assay type: cell-based, Corynebacterium glutamicum; conditions: ATCC 13032, 24 h
Method in brief: as §1

[9] = tested on: E. coli MC4100 (wild type, WT); experiment: microbe, parasite or virus in culture; conditions: wild type
Method in brief: (§3)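 Broth microdilution in Mueller–Hinton medium, 2.5–3 × 10^4 CFU/mL inoculum, two-fold peptide dilutions from 256 to 1 µg/mL, 35 °C with OD595 read hourly for 24 h. MIC is the lowest concentration giving OD below 10% of the untreated growth control; run in triplicate.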

[10] = tested on: E. coli NR698 (outer membrane permeable mutant, imp4213); experiment: microbe, parasite or virus in culture; conditions: MC4100 NR698 imp4213, deficient outer membrane
Method in brief: as §3

[11] = tested on: fungi (A. pullulans, C. albicans, Rhodotorula sp.); experiment: Antifungal MIC assay, all fungi together (range or geometric mean); assay type: cell-based; conditions: Table S3; MIC >128 set to 128
Method in brief: as §2

[12] = tested on: B. subtilis (Bs, ATCC 23857); experiment: microbe, parasite or virus in culture; assay type: cell-based, Bacillus subtilis; conditions: ATCC 23857, 24 h
Method in brief: as §1

CC(C)C[C@H](NC(=O)[C@H](CCCNC(=N)N)NC(=O)[C@@H]1CSSC[C@H](N)C(=O)NCC(=O)N[C@@H](CCCNC(=N)N)C(=O)N[C@@H](CCCNC(=N)N)C(=O)N2CCC[C@H]2C(=O)N[C@@H](Cc2c[nH]c3ccccc23)C(=O)N[C@@H](Cc2c[nH]c3ccccc23)C(=O)N[C@@H](Cc2c[nH]c3ccccc23)C(=O)N[C@@H](CCCNC(=N)N)C(=O)N1)C(N)=O [cTurg-7] (H-CGRRPWWWRCRL-NH2; disulfide 1-10; N-terminus assumed)
GM of MIC G+ [1]: 7 µg/mL | Antimicrobial Activity (MIC) Gram + Se [2]: 8 µg/mL | Selectivity index (SI) G- ([3]; Table S3, EC50/GM of Gram-negative strains, highest tested concentration used where EC50 above it): 9 | Selectivity index (SI) G+ ([3]; Table S3, EC50/GM of Gram-positive strains, highest tested concentration used where EC50 above it): 29 | Selectivity index (SI) Fungi ([3]; Table S3, EC50/GM of fungi, highest tested concentration used where EC50 above it): 6 | SI (selectivity index = EC50/GM) ([3]; haemolytic EC50 over GM of MIC against all bacterial strains, Table 1): 20 | RBC Tox. (EC50), haemolytic activity ([3]; human RBC, 1 h, 37 °C, concentration giving 50% haemolysis): 197 µg/mL | Antimicrobial Activity (MIC) Gram − Pa [4]: 32 µg/mL | GM of MIC G- [5]: 23 µg/mL | Antimicrobial Activity (MIC) Fungi Ap (A. pullulans (Ap)): 32 µg/mL | Antimicrobial Activity (MIC) Gram − Ec (E. coli (Ec, ATCC 25922)): 16 µg/mL | Antimicrobial Activity (MIC) Gram + Sa [6]: 16 µg/mL | Antimicrobial Activity (MIC) Fungi Ca [7]: 32 µg/mL | GM (geometric mean of the MIC values against all bacterial strains) (all bacterial strains; Table 1, six bacterial strains): 10 µg/mL | GM of MIC Tot. bact. (all bacterial strains; Table S3, all bacterial test strains, MIC >256 set to 256): 10 µg/mL | Antimicrobial Activity (MIC) Fungi Rh (Rhodotorula sp. (Rh)): 32 µg/mL | Antimicrobial Activity (MIC) Gram + Cg [8]: 4 µg/mL | MIC E. coli MC4100 (WT) [9]: 8 µg/mL (≈ 4.78 µM) | MIC E. coli NR698 (mutant) [10]: 8 µg/mL (≈ 4.78 µM) | GM of MIC Fungi [11]: 32 µg/mL | Antimicrobial Activity (MIC) Gram + Bs [12]: 4 µg/mL
